One compound from patent US5506213A, “Adminstration of 2'-halo-2'-deoxy adenosine to treat inflammatory bowel disease” (priority 1994, dated 1996) can be followed below.

Series [1] concerns multiple sclerosis. In words: Treatment of chronic multiple sclerosis patients with CdA. Type of series: in vivo, human. The protocol:
A study of four patients with chronic multiple sclerosis was undertaken. Each patient was first examined for normal hepatic, renal, and bone marrow functioning to establish baseline values. Each of the patients was then treated with CdA dissolved in sterile preservative-free isotonic saline. The CdA was administered intravenously at a dosage of 0.1 mg/kg each day for a total of seven days. Each patient received six courses of intravenous therapy, once monthly for a total of six months. Patients were examined on a daily basis while hospitalized. During that time, daily blood counts and twice weekly blood chemistries were performed on each patient. CdA levels were also measured in blood and spinal fluid.
The neurologic function of each of these patients was measured using the expanded Krutzke disability status scale (EDSS), and the neurologic rating scale (NRS).

Series [2] concerns DHL9, Increased ribonucleotide reduction. The series can be described thus: Direct comparative cytotoxicity assay (Table II), DHL9 increased ribonucleotide reduction. Type of series: cell-based, human. The conditions noted are these: Homo sapiens, 120 h, read-out: ID50: concentration that produced 50 percent reduction in all numbers after five days. The text has this: The two compounds, CdA and CAFdA, were also compared for in vitro activity against another group of human cell lines in a direct comparative assay.
^1 Concentration that produced 50 percent reduction in all numbers
^2 CEM cells are T lymphoblasts; DHL9 cells are lymphoblasts.

In the case of `Nc1nc(Cl)nc2c1ncn2[C@H]1C[C@H](O)[C@@H](CO)O1` [CdA, 2-chloro-9,1'-beta-D-2'-deoxyribosyladenine], in series [1] (all cases), the “cerebrospinal fluid IgG oligoclonal bonds” value is on record as “complete disappearance”. In addition, in series [1] (all four patients), the platelet counts entry is given as “remained within the normal range”. The macrocytosis result in series [1] (all patients, lasting six to eight months after cessation of treatment) is listed as “modest macrocytosis”. Besides, the monocyte level result in series [1] (another patient, after two treatments) is “substantially absent”. Further, the “neurologic function, EDSS and NRS scales” value in series [1] (during treatment with CdA) is on record as “evidence of improvement in all four patients”. For the same compound, the toxic side effects entry in series [1] (four patients, 0.1 mg/kg each day i.v. for seven days, six monthly courses) is listed as “no evidence of any significant toxic side effects”. Further, in series [1] (human, in vivo), the “cerebrospinal fluid lymphocyte counts” value is reported as “marked drop” and the “total CFS IgG” value was “no significant change”. For the same compound, in series [1] (one patient, after the first treatment), the monocyte drop turned out to be 40%. The monocyte level result in series [1] (same patient, after each of the remaining five treatments) is on record as “substantially absent”. The IC50 in series [2] was determined as 4 µM.
